Counter-ions that a name gives are not always drawn.
The compounds below were run against human Factor XIa (Homo sapiens (Human), UniProt P03951) (assay: Factor XIa Assay). Conditions: read-out: FXIa Ki.
Assay type: biochemical
Procedure, shortened: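 Purified human FXIa (40 pM final) hydrolysing fluorogenic Z-Gly-Pro-Arg-AFC (100 μM) in 50 mM HEPES pH 7.4, 150 mM NaCl, 5 mM CaCl2, 0.1% PEG 8000, at room temperature or 37° C. Initial velocities measured after enzyme–inhibitor equilibration; Ki from Vo/Vi versus [I], assuming competitive inhibition.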

human Factor XIa, sequence (P03951 388-625): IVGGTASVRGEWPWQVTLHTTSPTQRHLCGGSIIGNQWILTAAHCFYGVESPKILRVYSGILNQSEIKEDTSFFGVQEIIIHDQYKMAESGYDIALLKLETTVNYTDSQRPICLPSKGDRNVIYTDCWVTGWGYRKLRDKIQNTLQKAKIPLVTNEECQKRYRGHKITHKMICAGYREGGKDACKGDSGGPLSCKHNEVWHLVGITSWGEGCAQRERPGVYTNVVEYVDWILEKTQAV
human Factor XIa, sequence (P03951 19-387 partner): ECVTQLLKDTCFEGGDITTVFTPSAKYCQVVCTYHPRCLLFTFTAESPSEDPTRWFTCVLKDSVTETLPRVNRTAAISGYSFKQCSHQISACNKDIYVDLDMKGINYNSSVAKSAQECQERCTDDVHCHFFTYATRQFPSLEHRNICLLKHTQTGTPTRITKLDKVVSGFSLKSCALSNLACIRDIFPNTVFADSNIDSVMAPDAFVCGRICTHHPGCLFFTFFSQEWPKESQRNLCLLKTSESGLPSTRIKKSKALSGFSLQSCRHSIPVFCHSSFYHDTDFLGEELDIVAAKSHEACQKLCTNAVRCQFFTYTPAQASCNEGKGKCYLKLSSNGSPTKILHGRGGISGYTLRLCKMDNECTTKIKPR

Compared with `C[C@@H]1NC(=O)O[C@H]1c1cccc(C(=O)N[C@@H](Cc2ccccc2)C(=O)N2CCC3(C2)OC(=O)Nc2ccc(Cl)cc23)c1` (stereo partly drawn) [Example 173, N-((2S)-1-(6-chloro-2-oxo-1,2-dihydrospiro[benzo[d][1,3]oxazine-4,3′-pyrrolidin]-1′-yl)-1-oxo-3-phenylpropan-2-yl)-3-((4S,5S)-4-methyl-2-oxooxazolidin-5-yl)benzamide], `O=C1Nc2ccc(Cl)cc2C2(CCN(C(=O)[C@H](Cc3ccccc3)NC(=O)c3ccc4oc(=O)[nH]c4c3)C2)O1` (stereo partly drawn) [Example 183] is 4.4-fold lower in Ki: 385 nM for the first, 86.9 nM for the second.

Compared with `O=C1Cc2ccc(C(=O)N[C@@H](Cc3ccccc3)C(=O)N3CCC4(C3)OC(=O)Nc3ccc(Cl)cc34)cc2N1` (stereo partly drawn) [Example 174], `O=C1CCCc2cc(C(=O)N[C@@H](Cc3ccccc3)C(=O)N3CCC4(C3)OC(=O)Nc3ccc(Cl)cc34)ccc2N1` (stereo partly drawn) [Example 187] is 1.7-fold lower in Ki: 261 nM for the first, 151 nM for the second. The second binds more tightly here.

Going from `Nc1nc(C(=O)N[C@@H](Cc2ccccc2)C(=O)N2CCC3(C2)OC(=O)Nc2ccc(Cl)cc23)cs1` (stereo partly drawn) [Example 175] to `O=C1Nc2ccc(Cl)cc2C2(CCN(C(=O)[C@H](Cc3ccccc3)NC(=O)c3cc(O)ncn3)C2)O1` (stereo partly drawn) [Example 177], the Ki rises from 212 nM to 559 nM (2.6-fold).

`O=C1Nc2ccc(Cl)cc2C2(CCN(C(=O)[C@H](Cc3ccccc3)NC(=O)c3ccc4[nH]cnc4c3)C2)O1` (stereo partly drawn) [Example 176] and `Nc1nc2cc(C(=O)N[C@@H](Cc3ccccc3)C(=O)N3CCC4(C3)OC(=O)Nc3ccc(Cl)cc34)ccc2[nH]1` (stereo partly drawn) [Example 180] are within 1.5-fold of each other in Ki: 59.8 nM for the first, 56.7 nM for the second.

Compared with `O=C1Nc2ccc(Cl)cc2C2(CCN(C(=O)[C@H](Cc3ccccc3)NC(=O)c3ccc(O)c(F)c3)C2)O1` (stereo partly drawn) [Example 178, N-((2S)-1-(6-chloro-2-oxo-1,2-dihydrospiro[benzo[d][1,3]oxazine-4,3′-pyrrolidin]-1′-yl)-1-oxo-3-phenylpropan-2-yl)-3-fluoro-4-hydroxybenzamide], `O=C1Nc2ccc(Cl)cc2C2(CCN(C(=O)[C@H](Cc3ccccc3)NC(=O)c3ccc4cn[nH]c4c3)C2)O1` (stereo partly drawn) [Example 182] is 1.8-fold lower in Ki: 251 nM for the first, 137 nM for the second. The second binds more tightly here.

First: N=C(N)Nc1ccc(C(=O)N[C@@H](Cc2ccccc2)C(=O)N2CCC3(C2)OC(=O)Nc2ccc(Cl)cc23)cc1 (stereo partly drawn) [Example 179, N-((2S)-1-(6-chloro-2-oxo-1,2-dihydrospiro[benzo[d][1,3]oxazine-4,3′-pyrrolidin]-1′-yl)-1-oxo-3-phenylpropan-2-yl)-4-guanidinobenzamide]
Second: O=C(Nc1ccc(C(=O)N[C@@H](Cc2ccccc2)C(=O)N2CCC3(C2)OC(=O)Nc2ccc(Cl)cc23)cc1)OCCN1CCNCC1 (stereo partly drawn) [Example 190, 2-(Piperazin-1-yl)ethyl (4-(((2S)-1-(6-chloro-2-oxo-1,2-dihydrospiro[benzo[d][1,3]oxazine-4,3′-pyrrolidin]-1′-yl)-1-oxo-3-phenylpropan-2-yl)carbamoyl)phenyl)carbamate 2 trifluoroacetic acid salt]
The Ki of the first is 5.9-fold higher: 454 nM for the first, 76.7 nM for the second. The second binds more tightly here.

Compared with `O=C1Nc2ccc(Cl)cc2C2(CCN(C(=O)[C@H](Cc3ccccc3)NC(=O)c3ccc4c(c3)S(=O)(=O)NC4=O)C2)O1` (stereo partly drawn) [Example 184], `O=C1CS(=O)(=O)c2cc(C(=O)N[C@@H](Cc3ccccc3)C(=O)N3CCC4(C3)OC(=O)Nc3ccc(Cl)cc34)ccc2N1` (stereo partly drawn) [Example 193, N-((2S)-1-(6-chloro-2-oxo-1,2-dihydrospiro[benzo[d][1,3]oxazine-4,3′-pyrrolidine]-1′-yl)-1-oxo-3-phenylpropan-2-yl)-3-oxo-3,4-dihydro-2H-benzo[b][1,4]thiazine-7-carboxamide 1,1-dioxide] is 34-fold lower in Ki: 5000 nM for the first, 145 nM for the second.

Going from `Nc1n[nH]c2ccc(C(=O)N[C@@H](Cc3ccccc3)C(=O)N3CCC4(C3)OC(=O)Nc3ccc(Cl)cc34)cc12` (stereo partly drawn) [Example 185] to `NC(=O)c1n[nH]c2cc(C(=O)N[C@@H](Cc3ccccc3)C(=O)N3CC[C@@]4(C3)OC(=O)Nc3ccc(Cl)cc34)ccc12` [Example 219], the Ki rises from 96 nM to 2310 nM (24-fold).

First: COCCOC(=O)Nc1ccc(C(=O)N[C@@H](Cc2ccccc2)C(=O)N2CCC3(C2)OC(=O)Nc2ccc(Cl)cc23)cn1 (stereo partly drawn) [Example 186]
Second: COC(=O)Nc1ccc(C(=O)N[C@@H](Cc2ccccc2)C(=O)N2CCC3(C2)OC(=O)Nc2ccc(Cl)cc23)s1 (stereo partly drawn) [Example 196, Methyl (5-(((2S)-1-(6-chloro-2-oxo-1,2-dihydrospiro[benzo[d][1,3]oxazine-4,3′-pyrrolidin]-1′-yl)-1-oxo-3-phenylpropan-2-yl)carbamoyl)thiophen-2-yl)carbamate]
The Ki of the first is 2.6-fold higher: 166 nM for the first, 63.4 nM for the second.

First: O=C1C[S+]([O-])c2cc(C(=O)N[C@@H](Cc3ccccc3)C(=O)N3CCC4(C3)OC(=O)Nc3ccc(Cl)cc34)ccc2N1 (stereo partly drawn) [Example 192, N-((2S)-1-(6-chloro-2-oxo-1,2-dihydrospiro[benzo[d][1,3]oxazine-4,3′-pyrrolidine]-1′-yl)-1-oxo-3-phenylpropan-2-yl)-3-oxo-3,4-dihydro-2H-benzo[b][1,4]thiazine-7-carboxamide 1-oxide]
Second: N#Cc1n[nH]c2cc(C(=O)N[C@@H](Cc3ccccc3)C(=O)N3CC[C@@]4(C3)OC(=O)Nc3ccc(Cl)cc34)ccc12 [Example 218]
The Ki of the first is 2.5-fold lower: 99.7 nM for the first, 246 nM for the second. The first binds more tightly here.

First: COC(=O)Nc1ccc(C(=O)N[C@@H](CC2CC2)C(=O)N2CCC[C@@]3(C2)OC(=O)Nc2ccc(Cl)cc23)c(Cl)c1 [Example 201, methyl (3-chloro-4-(((S)-1-((R)-6-chloro-2-oxo-1,2-dihydrospiro[benzo[d][1,3]oxazine-4,3′-piperidin]-1′-yl)-3-cyclopropyl-1-oxopropan-2-yl)carbamoyl)phenyl)carbamate]
Second: COC(=O)Nc1ccc(C(=O)N[C@@H](CC2CC2)C(=O)N2CCC[C@@]3(C2)OC(=O)Nc2ccc(Cl)cc23)cn1 [Example 204]
The Ki of the first is 2.7-fold lower: 91.3 nM for the first, 244 nM for the second.

First: O=C1Nc2ccc(Cl)cc2[C@@]2(CCCN(C(=O)[C@H](CC3CC3)NC(=O)c3ccc(F)c(F)c3)C2)O1 [Example 202, N-((S)-1-((R)-6-chloro-2-oxo-1,2-dihydrospiro[benzo[d][1,3]oxazine-4,3′-piperidin]-1′-yl)-3-cyclopropyl-1-oxopropan-2-yl)-3,4-difluorobenzamide]
Second: Nc1ccc(C(=O)N[C@@H](CC2CC2)C(=O)N2CCC[C@@]3(C2)OC(=O)Nc2ccc(Cl)cc23)cn1 [Example 205]
The Ki of the first is 13-fold higher: 925 nM for the first, 72.2 nM for the second.

Going from `O=C1Nc2ccc(Cl)cc2[C@@]2(CCCN(C(=O)[C@H](CC3CC3)NC(=O)c3cnc4c(c3)CCN4)C2)O1` [Example 207] to `O=C1Nc2ccc(Cl)c(F)c2[C@@]2(CCCN(C(=O)[C@H](CC3CC3)NC(=O)c3ccc4[nH]c(=O)cc(O)c4c3)C2)O1` [Example 210], the Ki falls from 8750 nM to 0.22 nM (40000-fold). The second binds more tightly here.

Going from `CC(=O)Oc1cc(=O)[nH]c2ccc(C(=O)N[C@@H](Cc3ccccc3)C(=O)N3CCC[C@@]4(C3)OC(=O)Nc3ccc(Cl)c(F)c34)cc12` [Example 211] to `O=C1Nc2ccc(Cl)cc2[C@@]2(CCCN(C(=O)[C@H](Cc3ccccc3)NC(=O)c3ccc4c(O)cc(=O)[nH]c4c3)C2)O1` [Example 221], the Ki rises from 39.6 nM to 518 nM (13-fold).

Going from `O=C1Nc2ccc(Cl)c(F)c2[C@@]2(CCCN(C(=O)[C@H](Cc3ccccc3)NC(=O)c3ccc(NCC(F)(F)F)nc3)C2)O1` [Example 212] to `COC(=O)Nc1ccc(CN[C@@H](Cc2ccccc2)C(=O)N2CC[C@@]3(C2)OC(=O)Nc2ccc(Cl)cc23)cc1` [Example 222, Methyl (4-((((S)-1-((R)-6-chloro-2-oxo-1,2-dihydrospiro[benzo[d][1,3]oxazine-4,3′-pyrrolidin]-1′-yl)-1-oxo-3-phenylpropan-2-yl)amino)methyl)phenyl)carbamate], the Ki rises from 133 nM to 8750 nM (66-fold).

Reference: patent US10093683B2, “Factor XIa inhibitors” (Merck Sharp & Dohme Corp., priority 2014, dated 2018)
